Patent US7312248B2, “Control of parasites in animals by the use of novel trifluoromethanesulfonanilide oxime ether derivatives” (Schering-Plough Animal Health Corporation, priority 2004, dated 2007)
Read-outs that look alike come from different tables or passages of the source.

What was measured:
[1] = system: cat flea (Ctenocephalides felis); experiment: whole plant or invertebrate; type: in vivo; conditions: Ctenocephalides felis
Method: b) Ctenocephalides felis Adulticide Assay: C. felis Single Dose Screen
Mortality of fleas was the primary endpoint in the assay. Fleas were considered dead if they didn't move or were on their sides and unable to walk or right themselves. […] The concentration chosen (1.26 μg/cm^2) was higher than that known to kill 90% of cat fleas (LC90) using the reference compound, permethrin.
The test species was the cat flea (Ctenocephalides felis). The strain used was obtained from external suppliers as pupae and held in the laboratory under testing conditions until the adults had emerged. Fifteen (15) fleas were used in a minimum of four replicates against a single concentration level (approximately 60 fleas). The insects were selected to be in the adult life stage, aged between 3 and 7 days post emergence.
The compounds to be tested were supplied as solids and were prepared in acetone as described below prior to testing. Samples were stored in a refrigerator (5±1° C.) unless otherwise specified.
During the mortality testing, the temperature was maintained at 25±1° C. Humidity was maintained at 75±5%. The base (area=159 mm^2) of a 100 mL glass Erlenmeyer (conical) flask provided the treatment surface. Flasks were pretreated with Coatasil™ glass treatment to maximise bio-availability of test compounds by preventing them from binding to glass the surface. The base of the 100 mL Erlenmeyer flask was treated with 0.5 mL of test sample in acetone and gently swirled. This volume was sufficient to cover the base of the flask. Flasks were left to dry for 24 hours before flea exposure.
Adult cat fleas were placed into a sorting chamber, which allowed fleas to jump into the Erlenmeyer flasks. Fifteen (15) adult cat fleas were collected in each flask. The top of the flasks were then covered in Parafilm™ and small holes were made to allow gas exchange. A 0.5 mL volume of acetone as a solvent control was applied to the base of an Erlenmeyer flask and the testing proceeded in the same manner described above. Cat fleas in the treatment containers were held under testing conditions for 8, 24 and/or 48 hours. Mortality was recorded at 8, 24, 8 and 24, or 24 and 48 hours. Pooled 8, 24, 8 and 24, and 24 and 48 hour mortality data were converted to percentages and are summarized by Tables 14, 14A and 14B, below.

[2] = system: Haemonchus contortus; experiment: Haemonchus contortus larvacidal (larval development) assay; type: in vivo; conditions: 144 h, read-out: Haemonchus contortus LD99
Method: a) Haemonchus Contortus Larvacidal Assay:
The effect of compounds on larval development was determined in the assay described by Gill et al. (1995, International Journal of Parasitology 25:463-470). Briefly, in this assay, nematode eggs were applied to the surface of an agar matrix containing the test compound and then allowed to develop through to the L3, infective stage (6 days). The wells for each dilution of every compound (from highest to lowest concentration) were inspected to determine the well number corresponding to the lowest concentration at which development was inhibited in 99% of the nematode larvae present (LD99). Because well numbers correspond to a two-fold serial dilution of each compound, a titre (dilution factor) is generated as 2^n−1, where n is the well number. By dividing the highest concentration tested by the titre an LD99 value can be obtained, representing the concentration required to inhibit development in 99% of the nematode larvae present. The compounds supplied as solid and viscous liquids were dissolved in DMSO. Twelve serial one-half dilutions in DMSO solution were prepared from the stock solution, each of which was then diluted ⅕ with water. Aliquots (10 μl) of each dilution were transferred to the bioassay plates to give a final concentration range of 0.024 to 50 μg/ml.

[3] = 24 h, read-out: C. felis Mortality (%) 24 h, 24 h, Laboratory 1 A data
[4] = 24 h, read-out: C. felis Mortality (%) 24 h, 24 h, Laboratory 2 B data
[5] = 48 h, read-out: C. felis Mortality (%) 48 h, 48 h, Laboratory 2 B data

O=S(=O)(Nc1ccc(Cl)cc1/C=N/OCc1ccc(Cl)c(Cl)c1)C(F)(F)F [Compound 97, N-{4-chloro-2-[(3,4-dichlorobenzyloxyimino)methyl]phenyl}trifluoromethanesulfonamide]
mortality at 1.26 µg/cm2, 1.26 µg/cm2 [1, 3]: 42% | IC99 [2]: 0.6 µg/mL

C/C(=N\OCc1ccc(C(F)(F)F)cc1)c1cc(Cl)ccc1NS(=O)(=O)C(F)(F)F [Compound 14]
mortality at 1.26 µg/cm2, 1.26 µg/cm2 ([1]; 8 h, read-out: C. felis Mortality (%) 8 h, 8 h, Laboratory 1 A data): 2% | IC99 [2]: 0.9 µg/mL

CC/C(=N\OCCCc1ccccc1)c1cc(Cl)ccc1NS(=O)(=O)C(F)(F)F [Compound 105]
IC99 [2]: 3.5 µg/mL

C/C(=N\OCc1ccc(Br)cc1)c1cc(Cl)ccc1NS(=O)(=O)C(F)(F)F [Compound 23]
IC99 [2]: 0.8 µg/mL

O=S(=O)(Nc1ccc(Cl)cc1/C(=N/OCc1ccc(F)cc1F)c1ccccc1)C(F)(F)F [Compound 82]
IC99 [2]: 3.3 µg/mL

CC(C)/C(=N\OCc1ccc(Cl)cc1)c1cc(Cl)ccc1NS(=O)(=O)C(F)(F)F [Compound 117]
IC99 [2]: 3.5 µg/mL

CC/C(=N\OCc1cccc(C(F)(F)F)c1)c1cc(Cl)ccc1NS(=O)(=O)C(F)(F)F [Compound 12]
IC99 [2]: 1.7 µg/mL

O=S(=O)(Nc1ccc(Cl)cc1/C=N/OCc1ccc(C(F)(F)F)cc1)C(F)(F)F [Compound 70]
IC99 [2]: 3 µg/mL

CCC/C(=N\OCCc1ccccc1)c1cc(Cl)ccc1NS(=O)(=O)C(F)(F)F [Compound 110]
IC99 [2]: 5 µg/mL

CC/C(=N\OCc1cccc(Cl)c1)c1cc(Cl)ccc1NS(=O)(=O)C(F)(F)F [Compound 7]
IC99 [2]: 1.6 µg/mL

O=S(=O)(Nc1ccc(Cl)cc1/C(=N/OCc1cccc(C(F)(F)F)c1)c1ccccc1)C(F)(F)F [Compound 68]
IC99 [2]: 3.5 µg/mL

C/C(=N\OCc1cccc(C(F)(F)F)c1)c1cc(Cl)ccc1NS(=O)(=O)C(F)(F)F [Compound 15]
IC99 [2]: 2.7 µg/mL

C/C(=N\OC(C)c1ccccc1)c1cc(Cl)ccc1NS(=O)(=O)C(F)(F)F (stereo not drawn) [Compound 122]
IC99 [2]: 7 µg/mL

O=S(=O)(Nc1ccc(Cl)cc1/C(=N/OCc1cccc(Cl)c1)c1ccccc1)C(F)(F)F [Compound 71]
IC99 [2]: 3 µg/mL

CC/C(=N\OCc1ccc(-c2ccccc2)cc1)c1cc(Cl)ccc1NS(=O)(=O)C(F)(F)F [Compound 94]
IC99 [2]: 7.5 µg/mL

C/C(=N\OCc1ccccc1F)c1cc(Cl)ccc1NS(=O)(=O)C(F)(F)F [Compound 39]
IC99 [2]: 7 µg/mL

C/C(=N\OCc1cccc(Cl)c1Cl)c1cc(Cl)ccc1NS(=O)(=O)C(F)(F)F [Compound 19]
IC99 [2]: 0.7 µg/mL

O=S(=O)(Nc1ccc(Cl)cc1/C(=N/OCc1ccc(Cl)cc1)c1ccccc1)C(F)(F)F [Compound 63]
IC99 [2]: 1.6 µg/mL

COc1ccc(CO/N=C(\c2ccccc2)c2cc(Cl)ccc2NS(=O)(=O)C(F)(F)F)cc1 [Compound 88]
IC99 [2]: 15 µg/mL

O=S(=O)(Nc1ccc(Cl)cc1/C(=N/OCc1ccccc1)c1ccccc1)C(F)(F)F [Compound 66]
IC99 [2]: 13 µg/mL

C/C(=N\OCc1ccccc1Cl)c1cc(Cl)ccc1NS(=O)(=O)C(F)(F)F [Compound 17]
IC99 [2]: 3.5 µg/mL

CCC/C(=N\OCc1ccc(Cl)c(Cl)c1)c1cc(Cl)ccc1NS(=O)(=O)C(F)(F)F [Compound 101]
IC99 [2]: 1.9 µg/mL

O=S(=O)(Nc1ccc(Cl)cc1/C(=N/OCc1ccc(Br)cc1)c1ccccc1)C(F)(F)F [Compound 64, N-{2-[(4-bromobenzyloxyimino)phenylmethyl]-4-chlorophenyl}trifluoromethanesulfonamide]
IC99 [2]: 1.4 µg/mL

CCC/C(=N\OCCOc1ccccc1)c1cc(Cl)ccc1NS(=O)(=O)C(F)(F)F [Compound 115]
IC99 [2]: 7.5 µg/mL

C/C(=N\OCc1ccccc1C(F)(F)F)c1cc(Cl)ccc1NS(=O)(=O)C(F)(F)F [Compound 13]
IC99 [2]: 3 µg/mL

CC/C(=N\OCc1c(Cl)cccc1Cl)c1cc(Cl)ccc1NS(=O)(=O)C(F)(F)F [Compound 8]
IC99 [2]: 13 µg/mL

CCC/C(=N\OCc1cccc(Cl)c1Cl)c1cc(Cl)ccc1NS(=O)(=O)C(F)(F)F [Compound 99]
IC99 [2]: 2.5 µg/mL

C/C(=N\OCc1ccc([N+](=O)[O-])cc1)c1cc(Cl)ccc1NS(=O)(=O)C(F)(F)F [Compound 4]
IC99 [2]: 2.5 µg/mL

O=S(=O)(Nc1ccc(Cl)cc1/C=N/OCc1ccc(Cl)cc1)C(F)(F)F [Compound 81]
IC99 [2]: 1.7 µg/mL

O=S(=O)(Nc1ccc(Cl)cc1/C(=N/OCc1ccccc1C(F)(F)F)c1ccccc1)C(F)(F)F [Compound 69]
IC99 [2]: 2.7 µg/mL

C/C(=N\OCc1cccc(Oc2ccccc2)c1)c1cc(Cl)ccc1NS(=O)(=O)C(F)(F)F [Compound 47]
IC99 [2]: 1.5 µg/mL

CCC/C(=N\OCc1cc(Br)cc(Br)c1)c1cc(Cl)ccc1NS(=O)(=O)C(F)(F)F [Compound 113]
IC99 [2]: 3.8 µg/mL

C/C(=N\OCc1cccc(Cl)c1)c1cc(Cl)ccc1NS(=O)(=O)C(F)(F)F [Compound 18]
IC99 [2]: 3.7 µg/mL

CC(C)/C(=N\OCc1ccc(C2CCCCC2)cc1)c1cc(Cl)ccc1NS(=O)(=O)C(F)(F)F [Compound 118]
IC99 [2]: 10 µg/mL

N#Cc1ccc(CO/N=C(\c2ccccc2)c2cc(Cl)ccc2NS(=O)(=O)C(F)(F)F)cc1 [Compound 80]
IC99 [2]: 3.5 µg/mL

CCC/C(=N\OCc1ccc(Br)cc1)c1cc(Cl)ccc1NS(=O)(=O)C(F)(F)F [Compound 102]
IC99 [2]: 1.9 µg/mL

O=S(=O)(Nc1ccc(Cl)cc1-c1cc(-c2ccccc2)on1)C(F)(F)F [Compound 225]
IC99 ([2]; lowest concentration inhibiting development in 99% of larvae, eggs to L3, 6 days, range 0.024 to 50 μg/ml): 3.2 µg/mL

CC(C)O/N=C(\c1ccccc1)c1cc(Cl)ccc1NS(=O)(=O)C(F)(F)F [Compound 176]
mortality at 1.26 µg/cm2, 1.26 µg/cm2 [1, 3]: 52%

C/C(=N\OCC(C)C)c1ccc(C(F)(F)F)cc1NS(=O)(=O)C(F)(F)F [Compound 240]
mortality at 1.26 µg/cm2, 1.26 µg/cm2 [1, 4]: 64% | mortality at 1.26 µg/cm2, 1.26 µg/cm2 [1, 5]: 98%

C/C(=N\OCc1c(Cl)cccc1Cl)c1cc(Cl)ccc1NS(=O)(=O)C(F)(F)F [Compound 20]
IC99 [2]: 12 µg/mL

CC/C(=N\OCc1ccc(F)cc1)c1cc(Cl)ccc1NS(=O)(=O)C(F)(F)F [Compound 86]
IC99 [2]: 3.5 µg/mL

CCC/C(=N\OCc1ccc(Cl)cc1)c1cc(Cl)ccc1NS(=O)(=O)C(F)(F)F [Compound 112]
IC99 [2]: 3 µg/mL

C/C(=N\OCc1ccccc1)c1cc(Cl)ccc1NS(=O)(=O)C(F)(F)F [Compound 22]
IC99 [2]: 6 µg/mL

CC(C)/C(=N\OCc1ccc(Cl)cc1Cl)c1cc(Cl)ccc1NS(=O)(=O)C(F)(F)F [Compound 119]
IC99 [2]: 1.2 µg/mL

CCC(C)O/N=C(\C)c1cccc(C)c1NS(=O)(=O)C(F)(F)F (stereo not drawn) [Compound 58]
mortality at 1.26 µg/cm2, 1.26 µg/cm2 [1, 3]: 25%

CC/C(=N\Oc1ccc(OC(F)(F)F)cc1)c1cc(Cl)ccc1NS(=O)(=O)C(F)(F)F [Compound 152]
mortality at 1.26 µg/cm2, 1.26 µg/cm2 [1, 3]: 61%

O=S(=O)(Nc1ccc(Cl)cc1/C=N/OCc1cccc(Cl)c1Cl)C(F)(F)F [Compound 95]
IC99 [2]: 0.8 µg/mL

CC/C(=N\OCc1ccccc1)c1cc(Cl)ccc1NS(=O)(=O)C(F)(F)F [Compound 107]
IC99 [2]: 10 µg/mL

COCCON=C(c1ccccc1)c1cc(Cl)ccc1NS(=O)(=O)C(F)(F)F (racemic) [Compound 234, N-{4-chloro-[(2-methoxyethoxyimino)phenylmethyl]phenyl}trifluoromethanesulfonamide]
mortality at 1.26 µg/cm2, 1.26 µg/cm2 [1, 4]: 64% | mortality at 1.26 µg/cm2, 1.26 µg/cm2 [1, 5]: 100%

O=S(=O)(Nc1ccc(Cl)cc1/C(=N/OCc1cccc(Cl)c1Cl)c1ccccc1)C(F)(F)F [Compound 62]
IC99 [2]: 3 µg/mL

CCOCN(c1ccc(Cl)cc1/C(C)=N/Oc1ccc(F)cc1)S(=O)(=O)C(F)(F)F [Compound 299]
mortality at 1.26 µg/cm2 ([1]; 24 h, read-out: Ctenocephalides felis Mortality (%) 24 h): 0% | mortality at 1.26 µg/cm2 ([1]; 48 h, read-out: Ctenocephalides felis Mortality (%) 48 h): 56%

CO/N=C(\C)c1cc2c(cc1NS(=O)(=O)C(F)(F)F)OCO2 [Compound 32]
mortality at 1.26 µg/cm2, 1.26 µg/cm2 [1, 3]: 100%
